# Measured values taken from patent publication US20080139546A1, “Tetrahydroquinoline, indoline, and related aniline derivatives of heterocycle-fused benzodioxan methylamines” (Wyeth, priority 2006, published 2008).
# Key:
# Human 5-HT1A Receptor [1] = target: T1, Human 5-HT1A Receptor (Homo sapiens, UniProt P08908); experiment: 8-OH-DPAT binding, human 5-HT1A receptor cell line (displacement of [3H]-OHDPAT, stably transfected CHO cells); conditions: [3H]-OHDPAT 1.5 nM, read-out: h5HT1A Affinity Ki (nM) (Example 17)
# T1 construct: expressed in transfected cells; host or cells: CHO cells (Chinese hamster ovary), stably transfected
# T1 sequence (P08908 1-422): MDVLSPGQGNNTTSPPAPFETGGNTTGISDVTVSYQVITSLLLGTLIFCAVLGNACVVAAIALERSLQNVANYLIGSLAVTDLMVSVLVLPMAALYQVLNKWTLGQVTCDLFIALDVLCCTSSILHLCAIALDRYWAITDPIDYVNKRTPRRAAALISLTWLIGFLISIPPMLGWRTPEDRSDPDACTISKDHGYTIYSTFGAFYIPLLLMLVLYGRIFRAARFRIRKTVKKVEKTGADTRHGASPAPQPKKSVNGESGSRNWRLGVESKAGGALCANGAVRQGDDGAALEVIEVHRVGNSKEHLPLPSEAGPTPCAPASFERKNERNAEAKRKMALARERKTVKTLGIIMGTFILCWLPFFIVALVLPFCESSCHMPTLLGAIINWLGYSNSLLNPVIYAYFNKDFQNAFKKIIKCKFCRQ
# Protocol: Affinity for the serotonin 5-HT1A receptor was established by testing each compound's ability to displace [^3H]-OHDPAT (dipropylaminotetralin) from the 5-HT1A serotonin receptor following a modification of the procedure of Hall et al., J. Neurochem. 44:1685-1696 (1985). Stably transfected Chinese hamster ovary (CHO) cells were plated and grown in Dulbecco's Modified Eagle's Medium (DMEM) containing 10% heat inactivated fetal bovine serum (FBS) and non-essential amino acids. Cells were scraped off the plate, transferred to centrifuge tubes, and washed twice by centrifugation (2000 rpm for 10 minutes at 4° C.) in buffer (50 mM Tris, pH 7.5). The resulting pellets were aliquoted and stored at −80° C. On the day of assay, the cells were thawed on ice, and re-suspended in buffer. The binding assay was performed in a 96-well microtiter plate in a total volume of about 250 μL. Non-specific binding was determined in the presence of 10 μM 5-HT; the final radio ligand concentration was 1.5 nM. Following a 30 minute incubation at room temperature, the reaction was terminated by the addition of ice cold buffer and rapid filtration through a GF/B filter presoaked for 30 minutes in 0.5% polyethyleneimine (PEI). Compounds were initially tested in a single point assay to determine percent inhibition at 1 μM, 0.1 μM, and 0.01 μM. Subsequently, Ki values were determined for compounds defined to be active. Percent inhibition Ki was determined by RFComp (Lundon Software, Chagrin Falls, Ohio), with serotonin and 8-OH-DPAT as the reference compounds.
# High affinity for the receptor is evidence of a compound's ability to directly modulate activity at the 5-HT1A receptor.
# Human 5-HT1A Receptor [2] = target: T1, Human 5-HT1A Receptor; experiment: cAMP radioimmunoassay (RIA) in human 5-HT1A receptor cell line, inhibition of forskolin stimulated cAMP; type: cell-based; conditions: forskolin (1 μM) stimulated cAMP, stably transfected CHO cells; read-out: h5HT1A cAMP EC50 (nM) (Example 19)
# Protocol: Certain effects of 5-HT (e.g., certain effects mediated by the interaction of 5-HT with the 5-HT1A receptor) are mediated by cAMP. To test the ability of compounds described herein to modulate cAMP, a radioimmunoassay (RIA) method was used. Briefly, stably transfected CHO cells were grown in DMEM containing 10% heat inactivated FBS and non-essential amino acids. The cells were plated at a density of 10^6 cells per well in a 96-well plate and incubated for 2 days in a CO2 incubator. On the second day, the medium was replaced with 0.1 ml Krebs and incubated 15 minutes at 37° C. The medium was then replaced with Krebs buffer containing 500 μM isobutylmethylxanthine (IBMX) and incubated for approximately 5 minutes at 37° C. Wells were treated with forskolin (1 μM final concentration) followed immediately by test compound (0.1 and 1 μM for the initial screen) and incubated for an additional 10 minutes at 37° C. The reaction was terminated by removal of the medium and the addition of 0.5 ml ice cold assay buffer (supplied in the RIA kit). Plates were stored at −20° C. prior to assessment of cAMP formation by RIA. The cAMP kit was obtained from Amersham (Piscataway, N.J.) and the RIA was performed as per the kit instructions. In the initial screen, percent inhibition of forskolin stimulated cAMP was measured. […] These compounds behaved as either full agonists or partial agonists. 5-HT, BMY 7378, buspirone, and 8-OH-DPAT were used as reference compounds.
# All compounds tested inhibited the forskolin-stimulated increase in […].
# serotonin transporter = target: T2, serotonin transporter (Rattus norvegicus, UniProt P31652); experiment: 3H-paroxetine binding to rat frontal cortical membranes, affinity for the serotonin transporter; conditions: 3H-paroxetine 0.1 nM, male Sprague Dawley rat frontal cortical membranes; read-out: 5HT Uptake r5HT-T Ki (nM) (Example 18)
# T2 construct: frontal cortical membranes prepared from male Sprague Dawley rats; from tissue; host or cells: rat frontal cortex membranes (male Sprague Dawley)
# T2 sequence (P31652 whole entry): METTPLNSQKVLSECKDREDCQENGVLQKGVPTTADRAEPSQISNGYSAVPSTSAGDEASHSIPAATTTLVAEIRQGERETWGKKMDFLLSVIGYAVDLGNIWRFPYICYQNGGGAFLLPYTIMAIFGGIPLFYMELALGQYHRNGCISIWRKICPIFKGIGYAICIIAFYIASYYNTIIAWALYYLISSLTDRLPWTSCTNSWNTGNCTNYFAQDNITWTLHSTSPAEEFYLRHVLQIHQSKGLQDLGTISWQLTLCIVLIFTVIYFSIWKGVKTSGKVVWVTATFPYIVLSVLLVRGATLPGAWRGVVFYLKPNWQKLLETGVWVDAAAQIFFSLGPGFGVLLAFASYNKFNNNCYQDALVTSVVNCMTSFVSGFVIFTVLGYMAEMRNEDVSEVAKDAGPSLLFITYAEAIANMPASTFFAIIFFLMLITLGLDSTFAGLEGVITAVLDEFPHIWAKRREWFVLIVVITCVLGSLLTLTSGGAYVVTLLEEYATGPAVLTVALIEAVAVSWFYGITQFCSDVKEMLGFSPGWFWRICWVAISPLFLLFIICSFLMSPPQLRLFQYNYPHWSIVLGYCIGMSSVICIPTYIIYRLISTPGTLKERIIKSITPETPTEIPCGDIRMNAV
# Protocol: A protocol similar to that used by Cheetham et al. (Neuropharmacol. 32:737-743, 1993) was used to determine the affinity of compounds for the serotonin transporter (i.e., by determining the relative ability of a compound to displace ^3H-paroxetine from male rat frontal cortical membranes). Briefly, frontal cortical membranes prepared from male Sprague Dawley rats were incubated with ^3H-paroxetine (0.1 nM) for 60 minutes at 25° C. All tubes also contained either vehicle, test compound (one to eight concentrations), or a saturating concentration of fluoxetine (10 μM) to define […]. All reactions were terminated by the addition of ice cold Tris buffer followed by rapid filtration using a Tom Tech filtration device to separate bound from free ^3H-paroxetine. Bound radioactivity was quantitated using a Wallac 1205 Beta Plate® counter. Nonlinear regression analysis was used to determine IC50 values which were converted to Ki values using the method of Cheng and Prusoff (Biochem. Pharmacol. 22: 3099-3108, 1973); […].
# This affinity translates to the blockade of 5-HT uptake, i.e., the ability of a compound increase synaptic 5-HT levels and to act like an SSRI.
# Human 5-HT Transporter = target: T3, Human 5-HT Transporter (Homo sapiens, UniProt P31645); experiment: Inhibition of 3H-5-HT uptake by Jar cells possessing the human 5-HT transporter; type: cell-based; conditions: Jar cells treated with staurosporine, read-out: 5HT Uptake h5HT-T IC50 (nM) (Example 20)
# T3 construct: endogenous in cells; host or cells: Jar cells (human carcinoma cell line), treated with staurosporine
# T3 sequence (P31645 whole entry): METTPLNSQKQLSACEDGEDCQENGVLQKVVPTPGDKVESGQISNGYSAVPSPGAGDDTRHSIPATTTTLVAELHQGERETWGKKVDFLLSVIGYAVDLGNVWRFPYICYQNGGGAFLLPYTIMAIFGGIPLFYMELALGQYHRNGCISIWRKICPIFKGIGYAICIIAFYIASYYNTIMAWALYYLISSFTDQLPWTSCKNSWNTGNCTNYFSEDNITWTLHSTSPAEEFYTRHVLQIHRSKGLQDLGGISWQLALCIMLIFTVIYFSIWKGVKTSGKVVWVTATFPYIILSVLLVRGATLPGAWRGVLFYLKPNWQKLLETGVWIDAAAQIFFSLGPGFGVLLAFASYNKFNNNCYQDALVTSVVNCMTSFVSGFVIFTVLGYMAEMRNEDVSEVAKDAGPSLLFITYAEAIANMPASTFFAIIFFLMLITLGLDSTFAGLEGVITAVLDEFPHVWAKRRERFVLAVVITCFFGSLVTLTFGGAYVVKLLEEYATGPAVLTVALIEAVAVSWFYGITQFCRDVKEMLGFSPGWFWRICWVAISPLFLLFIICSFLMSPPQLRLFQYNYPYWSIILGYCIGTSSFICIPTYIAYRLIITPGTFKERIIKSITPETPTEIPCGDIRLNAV
# Protocol: [Staurosporine greatly increases the expression of the 5-HT-Transporter.] On the day of assay, vehicle, excess of fluoxetine, or test compound was added to various wells on the plate. ^3H-5-HT was then aliquoted into all wells and the samples were incubated at 37° C. for 5 minutes. The wells were then washed with ice cold 50 mM Tris HCl (pH 7.4) buffer and aspirated to remove free ^3H-5-HT. 25 μL 0.25 M NaOH was then added to each well to lyse the cells and 75 μL scintillation cocktail (Microscint™ 20) was added prior to quantitation on a Packard TopCount® machine. Tubes with vehicle represent total possible uptake, radioactivity counted in tubes with excess fluoxetine represent nonspecific binding/uptake and were subtracted from the total possible uptake to give total possible specific uptake. This nonspecific binding (usual low in number) was then subtracted from the counts obtained in wells with various test compounds (or different concentrations of a test compound) resulting in uptake in the presence of drug. Specific uptake was then expressed as a percent of control values and was analyzed using nonlinear regression analysis (Prizm) to determine IC50 values. If the compound was active in inhibiting 5-HT uptake, its counts will be close to that obtained with fluoxetine.
# This blockade, in vivo, would be expected to result in an increase in extracellular 5-HT concentrations.
Ki (Human 5-HT1A Receptor [1]) [nM],EC50 (Human 5-HT1A Receptor [2]) [nM],Ki (serotonin transporter) [nM],IC50 (Human 5-HT Transporter) [nM],Structure (SMILES)
2.45,1.58,13,150,"Cc1ccc2c3c(ccc2n1)OC[C@H](CNCCCN1CCCc2ccccc21)O3 [Example 1, 3-(3,4-dihydroquinolin-1(2H)-yl)-N-{[(2S)-8-methyl-2,3-dihydro[1,4]dioxino[2,3-f]quinolin-2-yl]methyl}propan-1-amine]"
0.6,3.76,10.2,,"Cc1ccc2c3c(ccc2n1)OC[C@H](CNCCCN1CCc2cc(F)ccc21)O3 [Example 2, 3-(5-fluoro-2,3-dihydro-1H-indol-1-yl)-N-{[(2S)-8-methyl-2,3-dihydro[1,4]dioxino[2,3-f]quinolin-2-yl]methyl}propan-1-amine]"
0.35,1.88,2.8,107,"Cc1ccc2c3c(ccc2n1)OC[C@H](CNCCCN1CCc2ccc(F)cc21)O3 [Example 3, 3-(6-fluoro-2,3-dihydro-1H-indol-1-yl)-N-{[(2S)-8-methyl-2,3-dihydro[1,4]dioxino[2,3-f]quinolin-2-yl]methyl}propan-1-amine]"
0.27,1.57,7.7,32.9,"Cc1ccc2c3c(ccc2n1)OC[C@H](CNCCCN1CCCc2ccc(F)cc21)O3 [Example 4, 3-(7-fluoro-3,4-dihydroquinolin-1(2H)-yl)-N-{[(2S)-8-methyl-2,3-dihydro[1,4]dioxino[2,3-f]quinolin-2-yl]methyl}propan-1-amine]"
0.62,3.44,21.1,180,"Cc1ccc2c3c(ccc2n1)OC[C@H](CNCCCN1CCc2ccccc21)O3 [Example 5, 3-(2,3-dihydro-1H-indol-1-yl)-N-{[(2S)-8-methyl-2,3-dihydro[1,4]dioxino[2,3-f]quinolin-2-yl]methyl}propan-1-amine]"
2.58,0.77,40.8,,"Cc1ccc2c3c(ccc2n1)OC[C@H](CNCCCN1CCOc2ccccc21)O3 [Example 6, 3-(2,3-dihydro-4H-1,4-benzoxazin-4-yl)-N-{[(2S)-8-methyl-2,3-dihydro[1,4]dioxino[2,3-f]quinolin-2-yl]methyl}propan-1-amine]"
3.73,1.63,12.3,77,"Cc1ccc2c3c(ccc2n1)OC[C@H](CNCCCN1CCCc2cc(F)c(F)cc21)O3 [Example 7, 3-(6,7-difluoro-3,4-dihydroquinolin-1(2H)-yl)-N-{[(2S)-8-methyl-2,3-dihydro[1,4]dioxino[2,3-f]quinolin-2-yl]methyl}propan-1-amine]"
1.44,1.48,7.2,76.9,"Cc1ccc2c3c(ccc2n1)OC[C@H](CNCCCN1CCCc2cc(F)ccc21)O3 [Example 8, 3-(6-fluoro-3,4-dihydroquinolin-1(2H)-yl)-N-{[(2S)-8-methyl-2,3-dihydro[1,4]dioxino[2,3-f]quinolin-2-yl]methyl}propan-1-amine]"
1.41,1.18,27,,"Cc1ccc2c3c(ccc2n1)OC[C@H](CNCCCN1CCCc2cc(F)cc(F)c21)O3 [Example 9, 3-(6,8-difluoro-3,4-dihydroquinolin-1(2H)-yl)-N-{[(2S)-8-methyl-2,3-dihydro[1,4]dioxino[2,3-f]quinolin-2-yl]methyl}propan-1-amine]"
3.22,1.95,116,,"Cc1ccc2c3c(ccc2n1)OC[C@H](CNCCCN1CCCc2cc(F)c(Cl)cc21)O3 [Example 10, 3-(7-chloro-6-fluoro-3,4-dihydroquinolin-1(2H)-yl)-N-{[(2S)-8-methyl-2,3-dihydro[1,4]dioxino[2,3-f]quinolin-2-yl]methyl}propan-1-amine]"
2.77,1.43,14.7,4710,"Cc1ccc2c3c(ccc2n1)OC[C@H](CNCCCN1CCOc2ccc(F)cc21)O3 [Example 11, 3-(6-fluoro-2,3-dihydro-4H-1,4-benzoxazin-4-yl)-N-{[(2S)-8-methyl-2,3-dihydro[1,4]dioxino[2,3-f]quinolin-2-yl]methyl}propan-1-amine]"
0.79,3.06,36.2,,"Cc1ccc2c3c(ccc2n1)OC[C@H](CNCCCN1CCCCc2ccccc21)O3 [Example 12, N-{[(2S)-8-methyl-2,3-dihydro[1,4]dioxino[2,3-f]quinolin-2-yl]methyl}-3-(2,3,4,5-tetrahydro-1H-1-benzazepin-1-yl)propan-1-amine]"
0.57,2.49,3.5,,"Cc1ccc2c3c(ccc2n1)OC[C@H](CNCCCN(C)c1ccccc1Cl)O3 [Example 13, N-(2-chlorophenyl)-N-methyl-N′-{[(2S)-8-methyl-2,3-dihydro[1,4]dioxino[2,3-f]quinolin-2-yl]methyl}propane-1,3-diamine]"
0.19,1.66,3.3,161,"Cc1ccc2c3c(ccc2n1)OC[C@H](CNCCCCN1CCc2ccc(F)cc21)O3 [Example 14, 4-(6-fluoro-2,3-dihydro-1H-indol-1-yl)-N-{[(2S)-8-methyl-2,3-dihydro[1,4]dioxino[2,3-f]quinolin-2-yl]methyl}butan-1-amine]"
